Laboratory results published in patent publication US20130028986A1, “Pharmaceutical Compositions” (SABAREP LIMITED, priority 2005, published 2013).

System: skin or epidermal barrier (skin treated with clobetasol propionate)
Assay: Topical corticosteroid induced protease skin barrier damage model (tape stripping, TEWL)
Format: in vivo, human (volunteer)
Conditions: for rate of TEWL increase during tape stripping: compared to control and vehicle alone, up to 20 tape strips
Description: Topical glucocorticoids (corticosteroids), which are used in the treatment of atopic dermatitis, damage the skin barrier and cause changes to the lipids within the epidermis, and a reduction in the number corneodesmosomes holding the corneocytes together. […] Therefore, skin that has been pretreated with gluticocorticoids can provide a good model in which to test the efficacy of compounds for their capacity to restore the skin or epidermal barrier and to be useful in the treatment of dermato logical conditions that compromise the skin or epidermal barrier, particularly those involving an abnormal decrease in the cell-to-cell adhesion between epithelial cells (in particular between corneocytes) such as atopic eczema or dermatitis, sebarrhoeic eczema, irritant contact dermatitis, allergic contact dermatitis and other sensitive skin conditions. […] The techniques disclosed by Kao et al. provide a measure of barrier integrity and corneocyte cohesion (any increases in TEWL are indicative of a loss in barrier function and increases in total protein removed by the skin strips are the result of a loss of intercellular cohesion, and vice versa). The methods employed by Kao were therefore used in the following examples. The TEWL measurements were taken using an “Aquaflux AF 102” electrolytic water analyser (Available from Biox Systems Ltd, Southwark Campus, 103 Borough Road, London SE1 0AA, UK) in the manner described in Berg et al. (Berg, E. P. Pascut, F. C, Ciortea, L. L, O'Driscoll, D., Xiao, P. and Imhof, R. E. (2002), Aquaflux—A new instrument for water vapour flux density measurement Proceedings of the 4th International Symposium on Humidity and Moisture, Centre for Measurement Standards, ITRI, RoC, ISBN 957-774-423-0, pp. 288-95) and Ciortea et al. (Ciortea, L. I. O'Driscoll, D., Berg, E. P., Xiao, P., Pascut, F. C. and Imhof, R. E. (2002), New methods for measuring water desorption and vapour permeation rates in membranes Proceedings of the 4th International Symposium on Humidity and Moisture, Centre for Measurement Standards, ITRI, RoC, ISBN 957-774-423-0, pp. 288-95).
Microfine zinc oxide (available from BASF Aktiengesellschaft, 67056 Ludwigshafen, Germany, under the trade mark Z-Cote®, item no. 55082355, or from Univar, Basildon, Essex, UK, as item no. 76011010; see also: Z-Cote®, BASF; Mitchnick, M. A., Fairhurst, D. and Pinnell, S. R. (1999) J Am Acad Dermatol 40: 85-90) (25%) in light liquid paraffin was applied twice a day to a volunteer's left forearm for 4 days; their right forearm received light liquid paraffin only. One fingertip unit of clobetasol propionate (a potent corticosteroid) was then applied twice a day to the study areas for 3 days. TEWL was then measured at base line and following the removal of 4, 8, 12 and 16 tape strips.
Microfine zinc oxide, 5 and 15%, in light liquid paraffin was applied twice a day to a volunteer's the left bicep and left forearm for 4 days, respectively; the right bicep received light liquid paraffin only. […] TEWL was then measured at base line and following the removal of 4, 8, 12 and 16 tape strips. […]
Four finger dips of 12 mg/ml zinc stearate in light liquid paraffin were applied to the right forearm for 9 days, twice daily. […] On day 10, TEWL was measured at base line following the removal of 4, 8, 12 and 16 tape strips. […]

Compound: [O-2].[Zn+2] [Microfine zinc oxide, zinc oxide]
- reduction in TEWL following the removal of 16 tape strips (Example Ia, FIG. 2, 25% in light liquid paraffin twice a day for 4 days on left forearm, then clobetasol propionate twice a day for 3 days, compared with light liquid paraffin only): 37.5%
- protective effect (TEWL at base line and after 4, 8, 12 and 16 tape strips) (Example Ib, FIG. 3, 5 and 15% in light liquid paraffin twice a day for 4 days, clobetasol propionate twice a day for 3 days, compared with light liquid paraffin only): dose-dependant response
- rate of TEWL increase during tape stripping (Example Ie, FIG. 6, zinc oxide 25% (alone or with 12 mg/ml palmitic acid) in PEG400/ethanol (7:3) 6 times a day for 4 days, clobetasol propionate 3 times over 48 hours): significantly reduced

Compound: CCCCCCCCCCCCCCCC(=O)O [palmitic acid, Hexadecanoic acid]
- rate of TEWL increase during tape stripping (Example Id, FIG. 5, 12 mg/ml in PEG400/ethanol (7:3) 6 times a day for 4 days, then clobetasol propionate 3 times over 24 hours): significantly reduced

Compound: zinc stearate
- protection against the effects of clobetasol (TEWL at base line and after 4, 8, 12 and 16 tape strips) (Example Ic, FIG. 4, 12 mg/ml in light liquid paraffin twice daily for 9 days on right forearm, clobetasol propionate twice a day on days 6 to 9, TEWL on day 10): can also protect against the effects of clobetasol
